Measurements taken from patent US6767738B1, “Method of isolating adult mammalian CNS-derived progenitor stem cells using density gradient centrifugation” (The Salk Institute for Biological Studies, priority 1999, dated 2004).

Key:
clonal stem cells (AP14) = test: BrdU labeling of ACSC cultures during RA treatment; type: cell-based, rat
Description: Cell Culture. For proliferating conditions, clonal stem cells (AP14) were cultured in Dulbecco's Modified Eagles Medium/Ham's F12 (DMEM/F12, 1:1) containing N2 supplement (Gibco BRL, Gaithersburg, Md.) and 20 ng/ml rhFGF-2 (provided by A. Baird, Prizm Pharmaceuticals Inc., La Jolla, Calif.). Culture dishes (Becton Dickinsin Labware, Lincoln Park, N.J.) were coated with polyomithine and mouse laminin as previously described by Ray, et al., Proliferation, differentiation and long-term culture of primary hippocampal neurons, Proc Natl Acad Sci USA 90:3602-3606 (1993). For differentiation experiments, cells were plated into polyornithine/laminin coated glass chamber slides (Nunc, Naperville, Ill.) at a density of 2.5—103 per cm2. The cells were incubated for 24 hrs in normal N2 medium containing 20 ng/ml FGF-2, and then the medium was replaced by N2 medium containing 0.5% […] (FBS) and 0.01% DMSO (control solvent) or […] all-trans retinoic acid (Sigma, St. Louis, Mo.). For further differentiation, the medium was replaced by N2 medium containing 0.5% FBS and one of the following: sterile water (control solvent), mouse 2.55 NGF (50 ng/ml, Boehringer Mannheim, Indianapolis, Ind.), rhBDNF (20 ng/ml, Alomone Labs, Jerusalem, Israel), rhNT-3 (40 ng/ml, Genentech, South San Francisco, Calif.). The medium was replaced every two days. For inhibition of the tyrosine kinase activity of the Trk receptors, K-252a (100 nM, Calbiochem, San Diego, Calif.) was added to the medium.
BrdU Labeling and Visualization. Cells plated as described above were treated with BrdU ([…], Sigma) for 24 hrs before fixation. Then the cells were fixed with tris-buffered 4% paraformaldehyde for 15 min. incubated with tris-buffered 0.6% H2O2 for 30 min, and treated with 50% formamide/2×SSC for 2 hrs followed by a 30-min incubation in 2N HCl, and a neutralization in 0.1M borate (Na2B4O7) for 10 min. Cells were incubated with a-BrdU monoclonal antibody (1:400, Boehringer Mannheim) overnight at 4° C., and incubated with biotinylated horse anti-mouse secondary antibody (1:80, Jackson Immunoresearch, West Grove, Pa.) for 1 hr. Reactive cells were visualized with the avidin/biotin-peroxidase system (Vectastain Elite, Vector Laboratories, Burlingame, Calif.) and diaminobenzidine.
Upregulation of p21 was accompanied by a decrease in the number of dividing cells as evidenced by BrdU incorporation. Cultures were treated with RA for 2, 4, or 6 days and then pulsed with […] bromodeoxyuridine (BrdU) for 24 hrs on the last day of RA treatment. Cells were then fixed and processed for BrdU immunocytochemistry. In the presence of RA, there was a dramatic change in cell morphology, and a gradual decrease in the total number and proportion of BrdU-positive cells. Within 6 days of RA treatment, most of the phase-bright cells extended elaborate processes and only 29% of the cells were BrdU-positive, whereas in the serum-alone control treatment most of the cells continued to proliferate and retained rudimentary process morphology. In proliferative FGF-2-stimulated controls, more than 95% of the cells were labeled every 24 hrs.
Although proliferation decreased in response to RA, it is possible that the few remaining proliferating cells were contributing to the increase in neurons observed following RA treatment. To determine if RA induced a selective expansion of neuronal precursors, parallel cultures were treated with RA for 6 days followed by an additional 6 days in 0.5% serum alone. One set of cultures was fixed on days 2, 4, 6, 8, 10, and 12 and stained with 4,6-diamidino-2-phenylindole (DAPI) and the total number of nuclei was counted. Additional cultures were pulsed with BrdU for 72 hrs on days 0-3, 3-6, 6-9 or 9-12. The cultures were then fixed on day 12 and evaluated for the proportion of Map2ab-IR cells that had incorporated BrdU. […]

[1] = tested on: optic nerve low-buoyancy cells; test: Neuron generation from optic nerve low-buoyancy cells; type: cell-based, rat; details: 14 days high FGF-2, then 14 days differentiation; mean +/- s.e.m., n=5
Text: Tissue dissection: Three areas were dissected from adult rat brains as follows. Rats (170-190 g Fisher 344 males or females, Harlan) were deeply anesthetized with a mixture of ketamine, xylazine, and acepromazine. Animals were decapitated and whole brains removed. First, ˜1.5 mm of each optic nerve were harvested rostral to, but not including, the optic chiasma. The brain was then bisected longitudinally and each hippocampal lobe separated from the overlaying cortical white matter using the natural separation line along the alveus hippocampus. The white matter of the fimbria and subiculum was removed as much as possible. Some white matter remained. Finally, a 1.5 mm wide cortical ribbon containing parietal and frontal segments was dissected longitudinally, proximal to the central fissure. The pial and callosal surfaces were trimmed from each cortical ribbon to remove a majority of the meninges and white matter. […]
To determine if there were progenitors in the optic nerve with a latent ability to generate neurons, optic nerve was harvested, dissociated and fractioned. […] On day 28, cultures were calculated for the presence of neurons (β Tubulin) and those neurons present were scored for BrdU-immunoreactivity. Although many glia rapidly differentiated in the primary culture, clusters of proliferative precursor-like calls were readily detected. […]

Compound	Map2ab-IR neurons that divided (BrdU) (clonal stem cells (AP14); after 6 days of RA treatment) [%]	Map2ab-IR cells that divided (BrdU) (clonal stem cells (AP14); days 3-6 of RA treatment)	neurons labeled with BrdU (clonal stem cells (AP14); first 24 hours upon application of RA)	neurons labeled with BrdU (clonal stem cells (AP14); second day following RA treatment)	Map2ab-IR cells that divided (BrdU) (clonal stem cells (AP14); three days immediately following start of RA treatment, 72 hr pulse)	BrdU-positive cells (clonal stem cells (AP14); within 6 days of RA treatment, 24 hr BrdU pulse) [%]	β Tubulin-positive neurons, of the total population [1] [% +/− 0.3]	cells labeled every 24 hrs (BrdU) (clonal stem cells (AP14); proliferative FGF-2-stimulated controls)
CC1=C(/C=C/C(C)=C/C=C/C(C)=C/C(=O)O)C(C)(C)CCC1 [RA, all-trans retinoic acid]	< 0.5	Less than 5%	19 +/− 3%	3 +/− 1%	Less than one third	29		
FGF-2: basic fibroblast growth factor, human recombinant, prepared in E. coli							0.8	more than 95%
